# Measurements: patent US8329704B2, “Substituted pyrazinone derivatives for use in MCH-1 mediated diseases” (Janssen Pharmaceutica, N.V., priority 2005, dated 2012)
# Target: T1, human MCH-1 receptor (Homo sapiens, UniProt Q99705)
# T1 construct: expressed in transfected cells
# Test: Ca2+ mobilization experiment for the MCH-1 receptor (FLIPR), inhibition of MCH-induced Ca2+ mobilization
# Type: cell-based
# Details: CHO cells stably expressing human MCH-1 receptor, inhibition of MCH-induced Ca2+ response, read-out: MCH-1 pIC50 (converted)
# Protocol: The interaction of the compounds of Formula (I) with MCH-1 receptors was assessed in in vitro transient calcium (Ca^2+) mobilization assays in the fluorimetric imaging plate reader (FLIPR) format (Sullivan et al. 1999, Methods Mol Biol 114:125-133). In general, the natural agonist (MCH) is incubated with cells expressing the MCH-1 receptor, which elicits a concentration-dependent transient mobilization of Ca^2+ from internal stores. The interaction of the test compounds with the receptor is assessed in competition experiments. Various concentrations of the test compound are added to the incubation mixture containing the receptor-expressing cells and a submaximal concentration of MCH. The test compound in proportion to its antagonist potency and its concentration inhibits MCH-induced Ca^2+ mobilization.
# Chinese Hamster ovary cells (CHO) stably expressing the human MCH-1 receptor are grown in a 1:1 mixture of Dulbecco's Modified Eagles Medium (DMEM) and HAM's F12 medium including Glutamax™ (Invitrogen), supplemented with 10% heat-inactivated fetal bovine serum and 400 μg/ml geneticin.
# Twenty-four hours before the experiment, MCH-1 receptor-expressing CHO cells are seeded in 20 μl (5,000 cells per well) into 384-well black wall, clear bottom microtiter plates (Costar). On the day of the experiment, 20 μl per well calcium assay kit containing 10 mM probenicide (Molecular Devices) is added. Cells are loaded for 90 min at 37° C. and 5% CO2 in a cell culture incubator. After loading, 20 μl of serial dilutions of the test compound are added and cells are further incubated for 20 min at room temperature in the dark. After 20 min, 20 μl of a submaximal MCH concentration is added and changes in intracellular calcium are recorded directly in a FLIPR III apparatus (Molecular devices).
# Data from assays in the presence of compound were calculated as a percentage of total Ca^2+-responses measured in the absence of test compound. Inhibition curves, plotting percent of total Ca^2+-responses versus the log value of the concentration of the test compound, were automatically generated, and sigmoidal inhibition curves were fitted using non-linear regression. The pIC50 values of test compounds were derived from individual curves.
# T1 sequence (Q99705 whole entry): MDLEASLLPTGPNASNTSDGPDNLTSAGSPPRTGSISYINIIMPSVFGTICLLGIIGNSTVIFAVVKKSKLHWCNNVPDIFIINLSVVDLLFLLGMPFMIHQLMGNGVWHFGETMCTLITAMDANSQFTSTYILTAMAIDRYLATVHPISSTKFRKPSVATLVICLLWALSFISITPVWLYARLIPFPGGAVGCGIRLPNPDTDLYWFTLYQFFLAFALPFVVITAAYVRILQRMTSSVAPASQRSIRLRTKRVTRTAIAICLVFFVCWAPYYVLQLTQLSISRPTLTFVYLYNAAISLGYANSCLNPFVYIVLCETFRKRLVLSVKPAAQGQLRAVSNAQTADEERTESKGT
row,IC50 [nM],SMILES
1,79.4,COc1cc(-n2ccnc(OCCc3ccccc3)c2=O)ccc1OCCN1CCCC1 [2-06]
2,79.4,COc1cc(-n2ccnc(CCOc3ccccc3)c2=O)ccc1OCCN1CCCC1 [2-07]
3,158,COc1cc(-n2ccnc(CCCOc3ccccc3)c2=O)ccc1OCCN1CCCC1 [2-08]
4,31.6,O=c1c(SCCc2ccccc2)nccn1-c1ccc(OCCN2CCCC2)cc1 [2-10]
5,100,O=c1c(NCCCOc2ccccc2)nccn1-c1ccc(OCCN2CCCC2)cc1 [2-12]
6,15.8,COc1cc(-n2ccnc(NCCCOc3ccccc3)c2=O)ccc1OCCN1CCCC1 [2-13]
7,100,COc1cc(-n2ccnc(OCCOc3ccccc3)c2=O)ccc1OCCN1CCCC1 [2-14]
8,63.1,O=c1c(NCCc2ccc(F)cc2)nccn1-c1ccc(OCCN2CCCC2)cc1 [2-15]
9,25.1,COc1cc(-n2ccnc(NCCc3ccc(F)cc3)c2=O)ccc1OCCN1CCCC1 [2-16]
10,2000,O=c1c(NCCOc2ccc(F)cc2)nccn1-c1ccc(OCCN2CCCC2)cc1 [2-17]
11,39.8,COc1cc(-n2ccnc(NCCCOc3ccc(F)cc3)c2=O)ccc1OCCN1CCCC1 [2-18]
12,316,COc1cc(-n2ccnc(NCCc3ccccc3Br)c2=O)ccc1OCCN1CCCC1 [2-19]
13,31.6,COc1cc(-n2ccnc(NCCc3cccc(Br)c3)c2=O)ccc1OCCN1CCCC1 [2-20]
14,39.8,COc1cc(-n2ccnc(NCCc3ccc(Br)cc3)c2=O)ccc1OCCN1CCCC1 [2-21]
15,100,COc1cc(-n2ccnc(NCCc3ccccc3Cl)c2=O)ccc1OCCN1CCCC1 [2-22]
16,50.1,COc1cc(-n2ccnc(NCCc3cccc(Cl)c3)c2=O)ccc1OCCN1CCCC1 [2-23]
17,25.1,COc1cc(-n2ccnc(NCCc3ccc(Cl)cc3)c2=O)ccc1OCCN1CCCC1 [2-24]
18,126,COc1cc(-n2ccnc(SCCc3cccc(Cl)c3)c2=O)ccc1OCCN1CCCC1 [2-25]
19,251,O=c1c(NCCOc2ccccc2Cl)nccn1-c1ccc(OCCN2CCCC2)cc1 [2-27]
20,79.4,COc1cc(-n2ccnc(NCCOc3ccccc3Cl)c2=O)ccc1OCCN1CCCC1 [2-28]
21,63.1,COc1cc(-n2ccnc(NCCCOc3ccccc3Cl)c2=O)ccc1OCCN1CCCC1 [2-29]
22,50.1,COc1cc(-n2ccnc(NCCOc3cccc(Cl)c3)c2=O)ccc1OCCN1CCCC1 [2-30]
23,25.1,COc1cc(-n2ccnc(NCCCOc3cccc(Cl)c3)c2=O)ccc1OCCN1CCCC1 [2-31]
24,63.1,COc1cc(-n2ccnc(NCCCOc3ccc(Cl)cc3)c2=O)ccc1OCCN1CCCC1 [2-32]
25,200,COc1cc(-n2ccnc(NCCOc3ccccc3C)c2=O)ccc1OCCN1CCCC1 [2-33]
26,100,COc1cc(-n2ccnc(NCCc3ccc(C(F)(F)F)cc3)c2=O)ccc1OCCN1CCCC1 [2-34]

row,IC50 [nM],SMILES
1,31.6,COc1cccc(CCNc2nccn(-c3ccc(OCCN4CCCC4)c(OC)c3)c2=O)c1 [2-35]
2,50.1,COc1ccc(CCNc2nccn(-c3ccc(OCCN4CCCC4)c(OC)c3)c2=O)cc1 [2-36]
3,398,COc1cccc(OCCCNc2nccn(-c3ccc(OCCN4CCCC4)c(OC)c3)c2=O)c1 [2-37]
4,2000,COc1ccc(OCCCNc2nccn(-c3ccc(OCCN4CCCC4)c(OC)c3)c2=O)cc1 [2-38]
5,200,COc1cc(-n2ccnc(NCCc3ccc(Cl)cc3Cl)c2=O)ccc1OCCN1CCCC1 [2-39]
6,200,COc1cc(-n2ccnc(NCCOc3ccc(Cl)cc3Cl)c2=O)ccc1OCCN1CCCC1 [2-40]
7,631,COc1cc(-n2ccnc(NCCCOc3ccc(Cl)cc3Cl)c2=O)ccc1OCCN1CCCC1 [2-41]
8,251,COc1ccc(CCNc2nccn(-c3ccc(OCCN4CCCC4)c(OC)c3)c2=O)cc1Cl [2-42]
9,794,COc1cc(-n2ccnc(NCCc3ccc(C(F)(F)F)cc3F)c2=O)ccc1OCCN1CCCC1 [2-43]
10,79.4,COc1cc(-n2ccnc(NCCCOc3cccc(C#N)c3)c2=O)ccc1OCCN1CCCC1 [2-44]
11,100,CN(C1CCN(c2ccc(-n3ccnc(NCCc4ccccc4)c3=O)cc2)C1)S(C)(=O)=O (stereo not shown) [3-01]
12,50.1,CNC1CCN(c2ccc(-n3ccnc(NCCc4ccccc4)c3=O)cc2)C1 (stereo not shown) [3-02]
13,63.1,CC(=O)N(C)C1CCN(c2ccc(-n3ccnc(NCCc4ccccc4)c3=O)cc2)C1 (stereo not shown) [3-03]
14,100,CC(C)C(=O)N(C)C1CCN(c2ccc(-n3ccnc(NCCc4ccccc4)c3=O)cc2)C1 (stereo not shown) [3-04]
15,158,CN(C(=O)OC(C)(C)C)C1CCN(c2ccc(-n3ccnc(NCCc4ccccc4)c3=O)cc2)C1 (stereo not shown) [3-05]
16,100,O=c1c(NCCc2ccccc2)nccn1-c1ccc(N2CCNCC2)cc1 [3-06]
17,501,CC(C)(C)OC(=O)N1CCN(c2ccc(-n3ccnc(NCCc4ccccc4)c3=O)cc2)CC1 [3-07]
18,39.8,COc1cc(-n2ccnc(NCCc3ccccc3)c2=O)ccc1N1CCC(N)C1 (stereo not shown) [3-08]
19,63.1,COc1cc(-n2ccnc(NCCc3ccccc3)c2=O)ccc1N1CCC(NC(C)=O)C1 (stereo not shown) [3-09]
20,79.4,COc1cc(-n2ccnc(NCCc3ccccc3)c2=O)ccc1N1CCC(N(C)C(C)=O)C1 (stereo not shown) [3-10]
21,39.8,COc1cc(-n2ccnc(NCCc3ccccc3)c2=O)ccc1N1CCN(C)CC1 [3-11]
22,63.1,CNC1CCN(c2ccc(-n3ccnc(NCCc4ccccc4)c3=O)cc2OC)C1 (stereo not shown) [3-12]
23,50.1,COc1cc(-n2ccnc(NCCc3ccccc3)c2=O)ccc1N1CCC(N(C)C)C1 (stereo not shown) [3-13]
24,50.1,CCN(C)C1CCN(c2ccc(-n3ccnc(NCCc4ccccc4)c3=O)cc2OC)C1 (stereo not shown) [3-14]
25,50.1,CCCN(C)C1CCN(c2ccc(-n3ccnc(NCCc4ccccc4)c3=O)cc2OC)C1 (stereo not shown) [3-15]
26,50.1,COc1cc(-n2ccnc(NCCc3ccccc3)c2=O)ccc1N1CCC(NC2CC2)C1 (stereo not shown) [3-16]

row,IC50 [nM],SMILES
1,79.4,COc1cc(-n2ccnc(NCCc3ccccc3)c2=O)ccc1N1CCC(N(C)C2CC2)C1 (stereo not shown) [3-17]
2,158,COc1cc(-n2ccnc(NCCc3ccccc3)c2=O)ccc1N1CCC(N(C2CC2)C2CC2)C1 (stereo not shown) [3-18]
3,126,COc1cc(-n2ccnc(NCCc3ccccc3)c2=O)ccc1N1CCCN(C)CC1 [3-19]
4,126,COc1cc(-n2ccnc(NCCc3ccccc3)c2=O)ccc1N1CCC(N2CCC(O)C2)C1 (stereo not shown) [3-20]
5,31.6,COc1cc(-n2ccnc(NCCc3ccccc3)c2=O)ccc1C=CCN1CCCC1 [3-22]
6,39.8,COc1cc(-n2ccnc(NCCc3ccccc3)c2=O)ccc1C=CCN1CCOCC1 [3-23]
7,200,COc1cc(-n2ccnc(NCCc3ccccc3)c2=O)ccc1NC1CCNC1 (stereo not shown) [3-24]
8,63.1,COc1cc(-n2ccnc(NCCc3ccccc3)c2=O)ccc1NC1CCN(C)C1 (stereo not shown) [3-25]
9,39.8,CCCN1CCC(Nc2ccc(-n3ccnc(NCCc4ccccc4)c3=O)cc2OC)C1 (stereo not shown) [3-26]
10,126,COc1cc(-n2ccnc(NCCc3ccccc3)c2=O)ccc1NCCN1CCCC1 [3-28]
11,63.1,COc1cc(-n2ccnc(NCCc3ccccc3)c2=O)ccc1NCCN1CCOCC1 [3-29]
12,79.4,COc1cc(-n2ccnc(NCCc3ccccc3)c2=O)ccc1OC1CCN(C)C1 (stereo not shown) [3-32]
13,50.1,COc1cc(-n2ccnc(NCCc3ccccc3)c2=O)ccc1OC1CCN(C2CC2)C1 (stereo not shown) [3-33]
14,25.1,COc1cc(-n2ccnc(NCCc3ccccc3)c2=O)ccc1OC[C@H]1CCCN1 [3-34]
15,25.1,COc1cc(-n2ccnc(NCCc3ccccc3)c2=O)ccc1OC[C@@H]1CCCN1C [3-35]
16,126,COc1cc(-n2ccnc(NCCc3ccccc3)c2=O)ccc1OCC1CCCN1C(=O)OC(C)(C)C (stereo not shown) [3-36]
17,50.1,COc1cc(-n2ccnc(NCCc3ccccc3)c2=O)ccc1OCCN(C)CCO [3-37]
18,63.1,COc1cc(-n2ccnc(NCCc3ccccc3)c2=O)ccc1OCCNC(C)=O [3-38]
19,63.1,CCCC(=O)NCCOc1ccc(-n2ccnc(NCCc3ccccc3)c2=O)cc1OC [3-39]
20,79.4,COc1cc(-n2ccnc(NCCc3ccccc3)c2=O)ccc1OCCNC(=O)CN(C)C [3-40]
21,25.1,COc1cc(-n2ccnc(NCCc3ccccc3)c2=O)ccc1OCCNC1CC1 [3-41]
22,31.6,COc1cc(-n2ccnc(NCCc3ccccc3)c2=O)ccc1OCCN(C)C1CC1 [3-42]
23,200,COCC(=O)NCCOc1ccc(-n2ccnc(NCCc3ccccc3)c2=O)cc1OC [3-43]
24,200,COc1cc(-n2ccnc(NCCc3ccccc3)c2=O)ccc1OCCNC(=O)c1ccncc1 [3-44]
25,31.6,COc1cc(-n2ccnc(NCCc3ccccc3)c2=O)ccc1OCCN1CCC(O)C1 (stereo not shown) [3-45]
26,50.1,COc1cc(-n2ccnc(NCCc3ccccc3)c2=O)ccc1OCCN1CC[C@H](F)C1 [3-46]

row,SMILES,IC50 [nM]
1,COc1cc(-n2ccnc(NCCc3ccccc3)c2=O)ccc1NC1CC2COCC(C1)N2 (stereo not shown) [3-27],79.4
